Test results: US11498909B2, “Compound acting as antibiotics” (KBP BIOSCIENCES CO., LTD., priority 2018, dated 2022)
Values after ≈ are worked out from the molar mass of the structure shown. Where two headings read alike, the source gives them in different places.

What was measured:
Pseudomonas aeruginosa = experiment: In vitro antibacterial activity, agar dilution MIC (Experiment 1); assay type: cell-based
Experimental: Tested strains: all the clinically separated strains below were purchased from public facilities.
Escherichia coli ATCC25922, Pseudomonas aeruginosa ATCC27853, Klebsiella pneumoniae ATCC700603, and the like.
Tested Samples: Imipenem, Ceftazidime: Commercial Products, the Following Experiments were Carried Out According to the Content of an Effective Ingredient in Each Commercial Product;
The compounds of the present invention, their chemical names, and preparation methods are shown in the preparation example of each compound.
Experiment method: Agar dilution method, refer to National Committee for Clinical Laboratory Standards. 2006. Methods for Dilution Antimicrobial Susceptibility Tests for Bacteria That Grow Aerobically; Approved Standard—Seventh Edition M7-A7, Vol 26, No. 2, 2006, to determine the MIC of the compound. MIC represents the minimum inhibitory concentration.

[1] = Pharmacokinetics (PK) determination in SD rats (Experiment 4); assay type: in vivo; details: plasma; for AUC(0-t) / AUC(0-inf): Sprague-Dawley (SD), rat, iv, 2 mg/kg; for AUC(0-inf): read-out: AUCINF_obs
Experimental: The compound of the present invention, self-prepared and dissolved in a suitable solvent.
Instrument and equipment: API4000 LC-MS/MS
Chromatographic column: Waters XBridge C18(2.1×50 mm, […])
Rat blood collection: Animals were fixed. The animal's tail was heated with a water bathtub 10 minutes before each time point. About 200 μL of the blood was collected through the caudal vein. After the blood collection, the blood was placed in an anticoagulation tube containing heparin sodium. The blood samples were centrifuged at 8000 rpm for 6 minutes at 4° C. to obtain plasma samples. The plasma must be prepared within 30 minutes after the blood collection. The plasma was stored in a refrigerator at −80° C. before the test.
(1) Test samples were removed from the refrigerator (−80° C.), naturally thawed at room temperature, and then vortexed for 5 minutes;
(2) 20 μL sample was precisely pipetted to a 1.5 mL centrifuge tube;
(3) 200 μL of the internal standard solution was added;
(4) The mixture was vortexed for 5 minutes and centrifuged for 5 minutes (12000 revolutions per minute);
(5) 100 μL of the supernate was precisely pipetted, 100 μL of water was added, the mixture was vortexed for 5 minutes, and the sample was sent to LC-MS/MS for analysis.
The results of the concentrations of the test samples (plasma samples) were output with Analyst 1.6.1 of AB Corporation. The meaning value, the standard deviation, the coefficient of variation, and other parameters (not necessary to calculate the parameter that can be directly output from Analyst 1.6.1) were calculated with Microsoft Excel, and the PK parameter is calculated with Pharsight Phoenix 6.1 software.

[2] = agar dilution (Table 3), read-out: MIC50
[3] = agar dilution (Table 3), read-out: MIC90

CC(CCn1ccc(-c2ccc(C#Cc3ccc(CN4CCOCC4)o3)cc2)cc1=O)(C(=O)NO)S(C)(=O)=O (stereo not drawn) [Compound 45, N-hydroxy-2-methyl-2-(methylsulfonyl)-4-(4-(4-((5-(morpholinomethyl)furan-2-yl)ethynyl)phenyl)-2-oxopyridin-1(2H)-yl)butanamide]
MIC50 (Pseudomonas aeruginosa; [2]): 4 µg/mL (≈ 7.22 µM)

C[C@@H](O)[C@H](NC(=O)c1ccc(C#CC#Cc2ccc(C(N)=O)o2)cc1)C(=O)NO [Compound 27]
MIC90 (Pseudomonas aeruginosa; [3]): 4 µg/mL (≈ 10.1 µM)

C[C@@H](O)[C@H](NC(=O)c1ccc(C#CC#Cc2ccc(C(=O)N(C)C)o2)cc1)C(=O)NO [Compound 29]
MIC50 (Pseudomonas aeruginosa; [2]): 1 µg/mL (≈ 2.36 µM)
MIC90 (Pseudomonas aeruginosa; [3]): 4 µg/mL (≈ 9.45 µM)

C[C@@H](O)[C@H](NC(=O)c1ccc(/C=C/C=C/c2ccco2)cc1)C(=O)NO [Compound 1, 4-((1E,3E)-4-(furan-2-yl)buta-1,3-dienyl)-N-((2S,3R)-3-hydroxy-1-(hydroxyamino)-1-oxobutan-2-yl)benzamide]
MIC50 (Pseudomonas aeruginosa; [2]): 1 µg/mL (≈ 2.81 µM)
MIC90 (Pseudomonas aeruginosa; [3]): > 16 µg/mL

C[C@@H](O)[C@H](NC(=O)c1ccc(C(=O)N/N=C/c2ccco2)cc1)C(=O)NO [Compound 26, 4-(2-(furan-2-methylene)hydrazinecarbonyl)-N-((2S,3R)-3-hydroxy-1-(hydroxyamino)-1-oxobutan-2-yl)-benzamide]
MIC90 (Pseudomonas aeruginosa; [3]): 4 µg/mL (≈ 10.7 µM)

COCc1ccc(C#Cc2ccc(-c3ccn(CCC(C)(C(=O)NO)S(C)(=O)=O)c(=O)c3)cc2)o1 (stereo not drawn) [Compound 48]
MIC50 (Pseudomonas aeruginosa; [2]): 2 µg/mL (≈ 4.01 µM)

Cn1nccc1-c1ccc(C#Cc2ccc(-c3ccn(CCC(C)(C(=O)NO)S(C)(=O)=O)c(=O)c3)cc2)cc1 (stereo not drawn) [Compound 38, N-hydroxy-2-methyl-4-(4-(4-((4-(1-methyl-1H-pyrazol-5-yl)phenyl)ethynyl)phenyl)-2-oxopyridin-1(2H)-yl)-2-(methylsulfonyl)butanamide]
Cl_obs ([1]; IV 2 mg/kg): 16.8 ± 1.5 mL/min/kg
Vz_obs ([1]; IV 2 mg/kg): 1.81 ± 0.17 L/kg
t1/2z ([1]; IV 2 mg/kg): 75 ± 5.4 min
λ_z ([1]; IV 2 mg/kg): 0.56 ± 0.04 h⁻¹
AUC(0-t) [1]: 1940 ± 168 ng·h/mL
AUC(0-inf) [1]: 1990 ± 176 ng·h/mL

Cn1nccc1-c1ccc(C#Cc2ccc(C(=O)N[C@H](C(=O)NO)C(C)(C)N)cc2)cc1 [Compound 35, (S)—N-(3-amino-1-(hydroxyamino)-3-methyl-1-oxobutan-2-yl)-4-((4-(1-methyl-1H-pyrazol-5-yl)phenyl)ethynyl)benzamide]
MIC50 (Pseudomonas aeruginosa): 2 µg/mL (≈ 4.64 µM)
MIC90 (Pseudomonas aeruginosa): 16 µg/mL (≈ 37.1 µM)

C[C@@H](O)[C@H](NC(=O)c1ccc(C#CC#Cc2ccc(CN3CCOCC3)s2)cc1)C(=O)NO [Compound 43, N-((2S,3R)-3-hydroxy-1-(hydroxyamino)-1-oxobutan-2-yl)-4-((5-(morpholinomethyl)thienyl-2-yl)buta-1,3-diynyl)benzamide]
MIC50 (Pseudomonas aeruginosa; [2]): 1 µg/mL (≈ 2.14 µM)
MIC90 (Pseudomonas aeruginosa; [3]): 4 µg/mL (≈ 8.56 µM)
Cl_obs ([1]; IV 2 mg/kg): 36.5 ± 3.67 mL/min/kg
Vz_obs ([1]; IV 2 mg/kg): 0.88 ± 0.07 L/kg
t1/2z ([1]; IV 2 mg/kg): 16.8 ± 0.6 min
λ_z ([1]; IV 2 mg/kg): 2.48 ± 0.06 h⁻¹
AUC(0-t) [1]: 919 ± 100 ng·h/mL
AUC(0-inf) [1]: 921 ± 100 ng·h/mL

C[C@@H](O)[C@H](NC(=O)c1ccc(C#CC#Cc2ccc(CNCCOCCO)s2)cc1)C(=O)NO [Compound 42, N-((2S,3R)-3-hydroxy-1-(hydroxyamino)-1-oxobutan-2-yl)-4-((5-((2-(2-hydroxyethoxy)ethylamino)methyl)thienyl-2-yl)buta-1,3-diynyl)benzamide]
MIC50 (Pseudomonas aeruginosa; [2]): 0.5 µg/mL (≈ 1.03 µM)
MIC90 (Pseudomonas aeruginosa; [3]): 4 µg/mL (≈ 8.24 µM)
Cl_obs ([1]; IV 2 mg/kg): 84.3 ± 9.17 mL/min/kg
Vz_obs ([1]; IV 2 mg/kg): 2.16 ± 0.30 L/kg
t1/2z ([1]; IV 2 mg/kg): 18 ± 0.6 min
λ_z ([1]; IV 2 mg/kg): 2.35 ± 0.07 h⁻¹
AUC(0-t) [1]: 396 ± 41 ng·h/mL
AUC(0-inf) [1]: 398 ± 41 ng·h/mL

C[C@@H](O)[C@H](NC(=O)c1ccc(C#CC#Cc2oc(CO)cc2-c2ccccc2)cc1)C(=O)NO [Compound 17, N-((2S,3R)-3-hydroxy-1-(hydroxyamino)-1-oxobutan-2-yl)-4-((5-(hydroxymethyl)-3-phenylfuran-2-yl)buta-1,3-diynyl)benzamide]
MIC50 (Pseudomonas aeruginosa; [2]): 8 µg/mL (≈ 17.4 µM)
MIC90 (Pseudomonas aeruginosa; [3]): > 16 µg/mL

C[C@@H](O)[C@H](NC(=O)c1ccc(C#CC#Cc2ccnn2C)cc1)C(=O)NO [Compound 34, N-((2S,3R)-3-hydroxy-1-(hydroxamino)-1-oxobutan-2-yl)-4-((1-methyl-1H-pyrazol-5-yl)buta-1,3-diynyl)benzamide]
MIC50 (Pseudomonas aeruginosa; [2]): 4 µg/mL (≈ 10.9 µM)
MIC90 (Pseudomonas aeruginosa; [3]): > 16 µg/mL

C[C@@H](O)[C@H](NC(=O)c1ccc(C#Cc2ccc(-c3ccnn3C)nc2)cc1)C(=O)NO [Compound 40, N-((2S,3R)-3-hydroxy-1-(hydroxyamino)-1-oxobutan-2-yl)-4-((6-(1-methyl-1H-pyrazol-5-yl)pyridin-3-yl)ethynyl)benzamide]
MIC50 (Pseudomonas aeruginosa; [2]): 2 µg/mL (≈ 4.77 µM)
MIC90 (Pseudomonas aeruginosa; [3]): 1 µg/mL (≈ 2.38 µM)

C[C@@H](O)[C@H](NC(=O)c1ccc(/C=C/C=C/c2ccc(CO)o2)nc1)C(=O)NO [Compound 32]
Cl_obs ([1]; IV 2 mg/kg): 96.7 ± 8.83 mL/min/kg
Vz_obs ([1]; IV 2 mg/kg): 4.24 ± 1.65 L/kg
t1/2z ([1]; IV 2 mg/kg): 30.4 ± 10.8 min
λ_z ([1]; IV 2 mg/kg): 1.48 ± 0.46 h⁻¹
AUC(0-t) [1]: 344 ± 33.7 ng·h/mL
AUC(0-inf) [1]: 347 ± 32.7 ng·h/mL

CC(O)C(NC(=O)c1ccc(/C=C/C=C/c2ccco2)cc1)C(=O)NO (racemic) [Compound 25]
MIC50 (Pseudomonas aeruginosa; [2]): 1 µg/mL (≈ 2.81 µM)
MIC90 (Pseudomonas aeruginosa; [3]): > 16 µg/mL

C[C@@H](O)[C@H](NC(=O)c1ccc(/C=C/C=C/c2ccc(CO)o2)cc1)C(=O)NO [Compound 3, N-((2S,3R)-3-hydroxy-1-(hydroxamino)-1-oxobutan-2-yl)-4-((1E,3E)-4-(5-(hydroxymethyl)furan-2-yl)buta-1,3-dienyl)benzamide]
MIC50 (Pseudomonas aeruginosa; [2]): 2 µg/mL (≈ 5.18 µM)
MIC90 (Pseudomonas aeruginosa; [3]): 16 µg/mL (≈ 41.4 µM)

C[C@@H](O)[C@H](NC(=O)c1ccc(C#CC#Cc2ccco2)cc1)C(=O)NO [Compound 20]
MIC50 (Pseudomonas aeruginosa; agar dilution (Table 3)): 0.25 µg/mL (≈ 0.71 µM)
MIC90 (Pseudomonas aeruginosa; agar dilution (Table 3)): 1 µg/mL (≈ 2.84 µM)
AUCINF_obs ([1]; IV 2 mg/kg): 791 ± 117 ng·h/mL
AUClast ([1]; IV 2 mg/kg): 778 ± 116 ng·h/mL
Cl_obs ([1]; IV 2 mg/kg): 107 ± 16 mL/min/kg
Vz_obs ([1]; IV 2 mg/kg): 3.77 ± 0.53 L/kg
t1/2z ([1]; IV 2 mg/kg): 24.6 ± 0.6 min
λ_z ([1]; IV 2 mg/kg): 1.70 ± 0.03 h⁻¹

C[C@@H](O)[C@H](NC(=O)c1ccc(C#CC#Cc2ccc(CN3CCN(C)CC3)o2)cc1)C(=O)NO [Compound 13, N-((2S,3R)-3-hydroxy-1-(hydroxyamino)-1-oxobutan-2-yl)-4-((5-((4-methylpiperazin-1-yl)methyl)furan-2-yl)buta-1,3-diynyl)benzamide]
MIC50 (Pseudomonas aeruginosa; [2]): 2 µg/mL (≈ 4.31 µM)
MIC90 (Pseudomonas aeruginosa; [3]): 8 µg/mL (≈ 17.2 µM)
Cl_obs ([1]; IV 2 mg/kg): 69 ± 11.7 mL/min/kg
Vz_obs ([1]; IV 2 mg/kg): 2.09 ± 0.39 L/kg
t1/2z ([1]; IV 2 mg/kg): 21 ± 0.6 min
λ_z ([1]; IV 2 mg/kg): 1.98 ± 0.04 h⁻¹
AUC(0-t) [1]: 485 ± 87.4 ng·h/mL
AUC(0-inf) [1]: 493 ± 87.9 ng·h/mL

N-((2S,3R)-3-hydroxy-1-(hydroxyamino)-1-oxobutan-2-yl)-4-((5-((2-(2-hydroxyethoxy)ethylamino)methyl)furan-2-yl)buta-1,3-diynyl)benzamide [Compound 19]
MIC50 (Pseudomonas aeruginosa; agar dilution (Table 3)): 2 µg/mL
MIC90 (Pseudomonas aeruginosa; agar dilution (Table 3)): 8 µg/mL

C[C@@H](O)[C@H](NC(=O)c1ccc(C#CC#Cc2ccc(CN3CCNCC3)o2)cc1)C(=O)NO [Compound 24, N-((2S,3R)-3-hydroxy-1-(hydroxyamino)-1-oxobutan-2-yl)-4-((5-(piperazin-1-ylmethyl)furan-2-yl)buta-1,3-diynyl)benzamide]
MIC50 (Pseudomonas aeruginosa; [2]): 4 µg/mL (≈ 8.88 µM)
MIC90 (Pseudomonas aeruginosa; [3]): > 16 µg/mL

C[C@@](CCn1ccc(-c2ccc(C#Cc3ccc(CO)o3)cc2)cc1=O)(C(=O)NO)S(C)(=O)=O [Compound 46]
MIC50 (Pseudomonas aeruginosa; [2]): 1 µg/mL (≈ 2.06 µM)
MIC90 (Pseudomonas aeruginosa; [3]): 8 µg/mL (≈ 16.5 µM)

CC(CCn1ccc(-c2ccc(C#CC#Cc3ccc(CO)o3)cc2)cc1=O)(C(=O)NO)S(C)(=O)=O (stereo not drawn) [Compound 47]
MIC50 (Pseudomonas aeruginosa; [2]): 4 µg/mL (≈ 7.87 µM)
MIC90 (Pseudomonas aeruginosa; [3]): > 16 µg/mL

C[C@@H](O)[C@H](NC(=O)c1ccc(C#Cc2ccc(-c3ccnn3C)cc2)cc1)C(=O)NO [Compound 36, N-((2S,3R)-3-hydroxy-1-(hydroxyamino)-1-oxobutan-2-yl)-4-((4-(1-methyl-1H-pyrazol-5-yl)phenyl)ethynyl)benzamide]
MIC50 (Pseudomonas aeruginosa; [2]): 2 µg/mL (≈ 4.78 µM)
MIC90 (Pseudomonas aeruginosa; [3]): > 16 µg/mL

C[C@@H](O)[C@H](NC(=O)c1ccc(C#CC#Cc2ccc(CNCCCN)o2)cc1)C(=O)NO [Compound 12, 4-((5-((3-aminopropylamino)methyl)furan-2-yl)buta-1,3-diynyl)-N-((2S,3R)-3-hydroxy-1-(hydroxyamino)-1-oxobutan-2-yl)benzamide]
MIC50 (Pseudomonas aeruginosa; [2]): 2 µg/mL (≈ 4.56 µM)
MIC90 (Pseudomonas aeruginosa; [3]): 4 µg/mL (≈ 9.12 µM)

CC(C)(O/N=C(\C(=O)N[C@@H]1C(=O)N2C(C(=O)[O-])=C(C[n+]3ccccc3)CS[C@H]12)c1csc(N)n1)C(=O)O [Ceftazidime, reference compound]
MIC50 (Pseudomonas aeruginosa; [2]): 2 µg/mL (≈ 3.66 µM)
MIC90 (Pseudomonas aeruginosa; [3]): > 16 µg/mL
